Laboratory results reported in BindingDB's records for doi:10.3109/14756366.2010.528415 (Khyber Medical College, 2011).

Target: Urease (Canavalia ensiformis, UniProt P07374)
Test: Urease Inhibition Assay
Description: Reaction mixtures comprising 25 μL of enzyme (jack bean urease) solution and 55 μL of buffers containing 100 mM urea were incubated with 5 μL of test compounds (0.5 mM concentration) at 30°C for 15 min in 96-well plates. Urease activity was determined by measuring ammonia production using the indophenol method as described by weather burn14. Briefly, 45 μL each phenol reagent (1% w/v phenol and 0.005% w/v sodium nitroprusside) and 70 μL of alkali reagent (0.5% w/v NaOH and0.1% active chloride NaOCl) were added to each well. The increasing absorbance at 630 nm was measured after 50 min, using a microplate reader (Molecular Device). All reactions were performed in triplicate in a final volume of 200 μL.

Urease, sequence (P07374 whole entry): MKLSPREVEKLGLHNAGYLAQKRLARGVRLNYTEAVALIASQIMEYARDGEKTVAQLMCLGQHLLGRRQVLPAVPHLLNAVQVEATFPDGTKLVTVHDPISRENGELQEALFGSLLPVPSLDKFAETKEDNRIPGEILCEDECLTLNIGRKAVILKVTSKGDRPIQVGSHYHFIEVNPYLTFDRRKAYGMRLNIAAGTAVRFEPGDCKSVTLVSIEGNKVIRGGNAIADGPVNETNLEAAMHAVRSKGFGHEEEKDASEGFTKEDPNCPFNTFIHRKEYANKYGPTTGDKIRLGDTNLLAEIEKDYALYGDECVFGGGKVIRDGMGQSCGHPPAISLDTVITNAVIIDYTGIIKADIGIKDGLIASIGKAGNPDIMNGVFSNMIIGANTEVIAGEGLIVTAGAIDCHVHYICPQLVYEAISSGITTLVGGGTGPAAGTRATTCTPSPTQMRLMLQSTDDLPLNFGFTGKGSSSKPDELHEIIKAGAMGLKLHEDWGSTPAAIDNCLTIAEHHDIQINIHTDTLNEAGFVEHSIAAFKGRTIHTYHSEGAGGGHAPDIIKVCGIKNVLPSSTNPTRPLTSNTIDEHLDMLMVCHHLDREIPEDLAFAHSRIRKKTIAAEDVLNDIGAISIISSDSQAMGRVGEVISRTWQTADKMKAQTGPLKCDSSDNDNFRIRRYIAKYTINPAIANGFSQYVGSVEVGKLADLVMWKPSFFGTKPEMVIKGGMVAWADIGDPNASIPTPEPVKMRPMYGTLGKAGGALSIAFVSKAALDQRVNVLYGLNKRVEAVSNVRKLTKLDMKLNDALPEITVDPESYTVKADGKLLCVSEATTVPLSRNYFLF

| Structure (SMILES) | IC50 [µM] |
| --- | --- |
| CC(C)CCCCc1ccc(O[C@@H]2OC(CO)[C@H](O)[C@@H](O)C2O)cc1 (some centres not stated) [Indigoferin-B (2)] | 29.7 |
| CC(O)CCCCC(=O)c1c(O)cc(O)cc1O (configuration not stated) [Indigoferin-C (3)] | 23.3 |
